Common to all, as to assay type: in vivo, human
For series [1], the system named is Person with post-traumatic stress disorder (PTSD). The series is described as follows: Case History 1: donepezil in a rape victim with PTSD after suspected GHB intake. The source says: A person had been living in NYC for their work since January 2005. On Jun. 15, 2005, they met some friends after dinner and went dancing with them. They experienced a strange sensation late in the evening after drinking a glass of champagne. They remembered feeling drowsy and confused. They had to stop dancing because of a severe sedation and took a taxi. A […] they didn't know until now accompanied them to their apartment, which was unusual for them.
They didn't remember anything about the taxi drive and their trip back home. They remembered being with an unknown person and strangely being led down on their couch in their living room and looking at them.
Thereafter they repeatedly saw themself waking up in the morning and looking at their bed where they had discovered a preservative, a proof that a sexual behaviour had occurred between 2 and 6 am.
They experienced terrifying nightmares and repetitive uncontrolled behaviour consisting of looking at […] waking up alone with a desperate feeling of being sexually abused and of loneliness. […] About the evening and the rape they remembered only their inability to move, refusing sexual advances of the unknown person, and feeling uncomfortable because of their unusual behaviour.
On Jun. 20, 2005, they consulted in the Department of Psychiatry at Saint-Antoine Hospital in Paris. […] A legal procedure was initiated in NYC before coming back to Paris. […] A toxicological analysis was performed using hair sample for detection of the suspected drug GHB.
During the initial interview, they were unable to give any detail about the evening and the night of the rape. A person requested a method to decrease their anxiety symptoms, insomnia and nightmares associated with the traumatic event. After a discussion about the case, it was decided on Jun.

In series [2] the test system is Person with Generalized Anxiety (GAD), PTSD and cannabis dependence. The series is described as follows: Case History 2: donepezil in a patient with GAD, PTSD, cannabis dependence, alcohol dependence and binge-eating disorder.
Text: a person has no other psychiatric antecedent.
Despite them on-going biweekly psychotherapy, they continued to abuse cannabis at about 2 to 3 joints a day.
Series [3] relates to Person with GAD anxiety symptoms. Put plainly: Case history 3: donepezil in a patient with GAD anxiety symptoms persisting after MDD. An excerpt:
A person complained about insomnia, restlessness, tension, headaches, gastric symptoms, upset stomach, dizziness, fatigue, loss of appetite, and libido deficit. A person has been married for 13 years. Their spouse is a person working as an assistant director. The couple was well functioning, with two children, a child and a child in good health. A person was in good physical health and had no significant medical antecedent. A person had no previous psychiatric antecedent, nor any family history of mental disorders. […] […] a person is the youngest of 14 brothers and sisters.
A person was hospitalized in the Department of Psychiatry at Saint-Antoine Hospital and treated for MDD with venlafaxine from July 15 to Aug. […] Their anxiety consisted of excessive worrying, restlessness, tension, fatigue, loss of concentration, irritability, severe muscle tension and difficulty falling asleep. These symptoms met the GAD DSM IV criteria and persisted during the depressive episode and also when they no longer met the criteria for MDD. […] 9, 2005 to treat their anxiety symptoms. […] On Sep.

Setting [4] is: two weeks after increase to 5 mg b.i.d.
[5] abbreviates: 5 mg once a day, after one week.
Setting [6] is: 5 mg once a day, patient report.
Where [7] appears, read: 5 mg once a day, after one week, on ongoing venlafaxine.

Turning to `COc1cc2c(cc1OC)C(=O)C(CC1CCN(Cc3ccccc3)CC1)C2.Cl` (racemic) [donepezil, (±)-2,3-dihydro-5,6-dimethoxy-2-[[1-(phenylmethyl)-4-piperidinyl]methyl]-1H-inden-1-one hydrochloride], in series [1] (5 mg once a day, after 7 days), the “recall of details of the traumatic event” value is “some of the details of the post-traumatic event”; the sleep and nightmares result is “slept better without nightmares”. Also, in series [1] (5 mg once a day, after one week of treatment), the anxiety result was “began to feel less anxious”. Also, in series [1] (setting [4]), the anxiety and tension result is on record as “no more anxious nor tense”; the sleep entry is reported as “returned to normal without nightmares”. Also, in series [2] (5 mg once a day), the alcohol intake result is on record as “significantly produced a decrease”; the “verbal fluency and cognitive performances” value is reported as “did not improve”. Moreover, in series [2] (setting [5]), the binge-eating disorder entry is recorded as “completely disappeared” and the nightmares result was “completely disappeared”. In addition, the “craving for caffeine, nicotine, cannabis and binge-eating” value in series [2] (5 mg once a day, follow-up) is “significantly improved to the extent of disappearing”. Further, the “GAD anxiety symptoms (nervousness, muscle tension, restlessness, anxiety, worry, insomnia, and tremor)” value in series [2] (5 mg once a day, follow-up August 30 and Sept. 2, 2005) was “much improved”. In addition, in series [2] (setting [6]), the euphoria entry is “no longer euphoric”, the judgement result is “significantly improved”, the motor coordination result is “improved” and the “sensations of slowed time” value was “no more sensations of slowed time”. Also, the social withdrawal result in series [2] (setting [6]) was “no longer socially withdrawn”. Moreover, the cannabis smoking result in series [2] (5 mg once a day, before: 2 to 3 joints a day) is listed as “completely stop cannabis smoking without any withdrawal symptoms, nor craving symptoms”. The “effect of dose increase (nightmares related to drug withdrawal)” value in series [2] (increased to 5 mg b.i.d.) is listed as “further improvement with disappearance of nightmares”. Further, in series [3] (setting [7]), the anti-anxiety effect entry is listed as “definite anti-anxiety effect” and the side effects result is “No side effects were observed”. Also, the “anxiety symptoms / return to work” value in series [3] (6 days after increase to 5 mg b.i.d.) is reported as “able to return to work without any anxious symptoms”.

Turning to `CN1CCN2c3ncccc3Cc3ccccc3C2C1` (stereo not drawn) [mirtazapine], the “depressive symptoms (MDD)” value in series [2] (15 mg h.s. with biweekly psychotherapy, after 2 months of treatment) is on record as “complete recovery”.

Turning to `COc1ccc(C(CN(C)C)C2(O)CCCCC2)cc1` (stereo not drawn) [venlafaxine], the anxiety symptoms result in series [3] (ongoing venlafaxine 100 mg t.i.d.) is reported as “did not respond”. In addition, the “depression (MDD)” value in series [3] (treated from July 15 to Aug. 8, 2005, in hospital) is “recovered completely”.
